In brackets after ≈: the same amount, converted by molar mass.

The subject of one assay is Bifidobacterium longum APC1472. Description: Antibiotic susceptibility (VetMIC plates, ISO 10932:2010). The format is cell-based, Bifidobacterium longum ssp. longum. The note with it: APC1472, 48 h, read-out: MICs. The method, then: Antibiotic susceptibility was tested with […] plates Lact-1 and Lact-2 supplied from SVA (National Veterinary Institute, Uppsala, Sweden). […] MICs were determined as 80% or more reduction in pellet, compared to positive control lane. Borderline cases were interpreted by visual examples from “Methods for Antimicrobial Susceptibility Testing of Anaerobic Bacteria: Approved Standard” (CLSI, 7th edition).
In the case of `CN[C@H](CC(C)C)C(=O)N[C@H]1C(=O)N[C@@H](CC(N)=O)C(=O)N[C@H]2C(=O)N[C@H]3C(=O)N[C@H](C(=O)N[C@H](C(=O)O)c4cc(O)cc(O)c4-c4cc3ccc4O)[C@H](O)c3ccc(c(Cl)c3)Oc3cc2cc(c3O[C@@H]2O[C@H](CO)[C@@H](O)[C@H](O)[C@H]2O[C@H]2C[C@](C)(N)[C@H](O)[C@H](C)O2)Oc2ccc(cc2Cl)[C@H]1O` [Va, Vancomycin], the MIC stood at 0.5 µg/mL (≈ 0.345 µM).

The assay is the same for the next values; noted with them: APC1472, range of MICs for duplicate experiments, 37° C., 48 h, read-out: MICs.
For `CC1(C)S[C@@H]2[C@H](NC(=O)[C@H](N)c3ccccc3)C(=O)N2[C@H]1C(=O)O` [Am, Ampicillin], the MIC amounted to 2 µg/mL (≈ 5.72 µM). Still for that read-out and setting: to `O=C(N[C@H](CO)[C@H](O)c1ccc([N+](=O)[O-])cc1)C(Cl)Cl` [Cm, Chloramphenicol] belongs 2 µg/mL (≈ 6.19 µM). `CC[C@H]1OC(=O)[C@H](C)[C@@H](O[C@H]2C[C@@](C)(OC)[C@@H](O)[C@H](C)O2)[C@H](C)[C@@H](O[C@@H]2O[C@H](C)C[C@H](N(C)C)[C@H]2O)[C@](C)(O)C[C@@H](C)C(=O)[C@H](C)[C@@H](O)[C@]1(C)O` [Em, Erythromycin]: the MIC is 0.06 to 0.12 µg/mL (≈ 0.0818 to 0.164 µM). The same measure, in the same setting: next, `[H]/N=C(/N)N[C@H]1[C@H](O)[C@@H](O)[C@H](O[C@@H]2O[C@@H](C)[C@](O)(C=O)[C@H]2O[C@@H]2O[C@@H](CO)[C@H](O)[C@@H](O)[C@@H]2NC)[C@@H](N/C(N)=N\[H])[C@@H]1O` [Sm, Streptomycin]: 64 to 128 µg/mL (≈ 110 to 220 µM); `CN(C)[C@@H]1C(O)=C(C(N)=O)C(=O)[C@@]2(O)C(O)=C3C(=O)c4c(O)cccc4[C@@](C)(O)[C@H]3C[C@@H]12` [Tc, Tetracycline]: 1 µg/mL (≈ 2.25 µM).
